Test [1] addresses Interferon-induced, double-stranded RNA-activated protein kinase (Homo sapiens) (UniProt P19525). Put plainly: Selectivity interaction (Kinase panel (KiNativ target engagement assay in Jurkat cells)) EUB0001635a EIF2AK2. The class given is cell-based. Conditions: Selectivity number of off-targets 0.0, Selectivity number of targets 233.0, Source Knowledge https://www.sciencedirect.com/science/article/pii/S2451945619300674?via%3Dihub, at 1 µM.

Test [2] has as its target Death-associated protein kinase 1 (Homo sapiens, UniProt P53355). Nature of the test: Selectivity interaction (Ambit KINOMEscan and KiNATiv profiling in Jurkat cells) EUB0000090b DAPK1. The class given is cell-based. Conditions: at 1 µM.
Test [3] addresses Androgen receptor (Homo sapiens) (UniProt P10275). Put plainly: Selectivity interaction (Panel of non-epigenetic targets (kinases, GPCRs, ion channels, and transporters, Eurofins) ) EUB0000271b AR. As to conditions: at 1 µM.
Test [4] deals with Serine/threonine-protein kinase 38 (Homo sapiens) (UniProt Q15208). Conditions: at 10 µM.
For test [5], the target named is Ephrin type-A receptor 5 (Homo sapiens) (UniProt P54756). Put plainly: Selectivity interaction (KinomeScan (DiscoverX)) EUB0000666a EPHA5. As to conditions: at 10 µM.
The target of test [6] is T1, Histone-arginine methyltransferase CARM1 (Homo sapiens) (UniProt Q86X55).
T1 sequence (whole entry): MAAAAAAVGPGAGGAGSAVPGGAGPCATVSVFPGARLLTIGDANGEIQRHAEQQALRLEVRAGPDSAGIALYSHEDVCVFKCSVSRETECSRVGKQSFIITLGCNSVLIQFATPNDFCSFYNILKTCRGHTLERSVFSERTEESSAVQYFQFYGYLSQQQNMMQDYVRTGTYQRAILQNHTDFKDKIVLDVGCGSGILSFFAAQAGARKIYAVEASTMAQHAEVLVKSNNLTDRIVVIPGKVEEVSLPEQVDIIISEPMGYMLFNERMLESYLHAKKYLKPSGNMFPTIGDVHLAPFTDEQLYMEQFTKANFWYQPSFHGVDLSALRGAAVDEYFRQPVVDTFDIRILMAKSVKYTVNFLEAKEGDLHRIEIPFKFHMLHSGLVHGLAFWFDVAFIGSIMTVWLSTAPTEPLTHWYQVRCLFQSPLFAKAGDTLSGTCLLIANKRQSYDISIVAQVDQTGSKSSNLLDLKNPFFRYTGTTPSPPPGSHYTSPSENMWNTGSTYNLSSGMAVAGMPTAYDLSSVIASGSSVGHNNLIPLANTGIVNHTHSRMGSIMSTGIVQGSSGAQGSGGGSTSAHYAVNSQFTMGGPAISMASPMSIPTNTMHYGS
Conditions: KMS-28BM, at 3 µM.

Test [7] deals with MAP/microtubule affinity-regulating kinase 3 (Homo sapiens) (UniProt P27448). Nature of the test: Selectivity interaction (ActivX KiNativ screen (ex vivo kinase selectivity in human PBMCs)) EUB0001619a MARK3. The class given is cell-based. As to conditions: PBMC, at 1 µM.
Another test has as its target Misshapen-like kinase 1 (Homo sapiens, UniProt Q8N4C8). Put plainly: Selectivity interaction (KinomeScan (DiscoverX)) EUB0001619a MINK1. As to conditions: at 1 µM.
The target of test [8] is Serine/threonine-protein kinase OSR1 (Homo sapiens) (UniProt O95747). Put plainly: Selectivity interaction (ActivX KiNativ screen (ex vivo kinase selectivity in human PBMCs)) EUB0001619a OXSR1. The class given is cell-based. As to conditions: PBMC, at 1 µM.
For test [9], the target named is 5'-AMP-activated protein kinase catalytic subunit alpha-2 (Homo sapiens) (UniProt P54646). Nature of the test: Selectivity interaction (KinomeScan (DiscoverX)) EUB0001619a PRKAA2. Conditions: at 1 µM.
For test [10], the target named is Tyrosine-protein kinase Lyn (Homo sapiens, UniProt P07948). Nature of the test: Selectivity interaction (Kinase panel (Invitrogen)) EUB0000639a LYN. Conditions: at 200 nM.
In test [11] the target is Platelet-derived growth factor receptor alpha (Homo sapiens, UniProt P16234). Put plainly: Selectivity interaction (Kinase panel (Invitrogen)) EUB0000639a PDGFRA. As to conditions: at 200 nM.
Test [12] concerns the target Dual specificity protein kinase CLK1 (Homo sapiens, UniProt P49759). As to conditions: at 10 µM.
In test [13] the target is T2, Tyrosine-protein kinase receptor TYRO3 (Homo sapiens) (UniProt Q06418).
T2 sequence (whole entry): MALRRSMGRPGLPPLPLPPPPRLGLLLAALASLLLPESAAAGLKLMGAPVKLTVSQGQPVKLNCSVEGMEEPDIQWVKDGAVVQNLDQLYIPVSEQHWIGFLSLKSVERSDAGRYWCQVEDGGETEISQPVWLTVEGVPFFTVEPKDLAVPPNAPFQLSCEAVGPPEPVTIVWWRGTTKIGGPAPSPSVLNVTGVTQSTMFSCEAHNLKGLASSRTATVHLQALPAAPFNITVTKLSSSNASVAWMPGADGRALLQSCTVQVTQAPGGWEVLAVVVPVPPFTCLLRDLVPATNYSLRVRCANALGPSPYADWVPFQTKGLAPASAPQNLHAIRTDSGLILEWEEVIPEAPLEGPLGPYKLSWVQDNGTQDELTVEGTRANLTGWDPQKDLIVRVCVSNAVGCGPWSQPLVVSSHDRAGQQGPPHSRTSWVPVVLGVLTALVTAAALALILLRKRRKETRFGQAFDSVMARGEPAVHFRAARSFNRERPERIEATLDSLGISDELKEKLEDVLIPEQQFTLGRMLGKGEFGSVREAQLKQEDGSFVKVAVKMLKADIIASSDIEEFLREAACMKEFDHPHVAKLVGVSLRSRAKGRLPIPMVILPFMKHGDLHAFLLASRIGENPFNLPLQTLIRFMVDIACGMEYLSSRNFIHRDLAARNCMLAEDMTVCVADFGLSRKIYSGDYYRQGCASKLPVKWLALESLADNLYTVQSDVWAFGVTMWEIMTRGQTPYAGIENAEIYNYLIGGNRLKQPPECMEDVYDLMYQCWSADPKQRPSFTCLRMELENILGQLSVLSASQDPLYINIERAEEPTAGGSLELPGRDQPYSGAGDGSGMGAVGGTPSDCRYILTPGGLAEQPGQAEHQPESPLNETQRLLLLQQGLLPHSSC
Nature of the test: Selectivity interaction (Millipore kinase profiler) EUB0000124b TYRO3. Conditions: at 10 µM.

In test [14] the target is Serine/threonine-protein kinase pim-3 (Homo sapiens) (UniProt Q86V86). Nature of the test: Selectivity interaction (KinomeScan (DiscoverX)) EUB0001049a PIM3. Conditions: at 1 µM.
The target in the next test is CREB-binding protein (Homo sapiens, UniProt Q92793). Put plainly: Selectivity interaction (Bromodomain panel (DSF asssay)) EUB0000270b CREBBP.
The test system of test [15] is Tyrosine-protein kinase ABL1 (Homo sapiens), P00519 [T315I]. Put plainly: Selectivity interaction (KinomeScan (DiscoverX)) EUB0000045b ABL1. As to conditions: at 10 µM.
Test [16] has as its target Calcium/calmodulin-dependent protein kinase kinase 1 (Homo sapiens) (UniProt Q8N5S9). Put plainly: Selectivity interaction (KinomeScan (DiscoverX)) EUB0000045b CAMKK1.
For test [17], the target named is Microtubule-associated serine/threonine-protein kinase 1 (Homo sapiens) (UniProt Q9Y2H9). Put plainly: Selectivity interaction (KinomeScan (DiscoverX)) EUB0000045b MAST1.

Each structure is given as a SMILES string.

Chain of Calcium/calmodulin-dependent protein kinase kinase 1 (Homo sapiens) (Q8N5S9 whole entry, looked up): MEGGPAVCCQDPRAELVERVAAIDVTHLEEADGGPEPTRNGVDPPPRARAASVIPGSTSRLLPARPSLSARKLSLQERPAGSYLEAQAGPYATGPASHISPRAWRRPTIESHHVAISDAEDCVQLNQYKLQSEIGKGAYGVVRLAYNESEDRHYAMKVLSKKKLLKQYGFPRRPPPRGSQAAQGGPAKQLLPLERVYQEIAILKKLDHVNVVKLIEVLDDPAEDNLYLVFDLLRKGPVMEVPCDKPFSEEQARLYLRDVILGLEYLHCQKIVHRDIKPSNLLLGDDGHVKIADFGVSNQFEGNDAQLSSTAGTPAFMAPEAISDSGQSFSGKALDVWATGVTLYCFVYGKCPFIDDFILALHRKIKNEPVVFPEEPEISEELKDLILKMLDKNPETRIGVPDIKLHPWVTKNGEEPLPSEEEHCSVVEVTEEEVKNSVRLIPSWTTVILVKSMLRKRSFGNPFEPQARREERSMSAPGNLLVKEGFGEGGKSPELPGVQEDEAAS
Chain of Microtubule-associated serine/threonine-protein kinase 1 (Homo sapiens) (Q9Y2H9 whole entry, looked up): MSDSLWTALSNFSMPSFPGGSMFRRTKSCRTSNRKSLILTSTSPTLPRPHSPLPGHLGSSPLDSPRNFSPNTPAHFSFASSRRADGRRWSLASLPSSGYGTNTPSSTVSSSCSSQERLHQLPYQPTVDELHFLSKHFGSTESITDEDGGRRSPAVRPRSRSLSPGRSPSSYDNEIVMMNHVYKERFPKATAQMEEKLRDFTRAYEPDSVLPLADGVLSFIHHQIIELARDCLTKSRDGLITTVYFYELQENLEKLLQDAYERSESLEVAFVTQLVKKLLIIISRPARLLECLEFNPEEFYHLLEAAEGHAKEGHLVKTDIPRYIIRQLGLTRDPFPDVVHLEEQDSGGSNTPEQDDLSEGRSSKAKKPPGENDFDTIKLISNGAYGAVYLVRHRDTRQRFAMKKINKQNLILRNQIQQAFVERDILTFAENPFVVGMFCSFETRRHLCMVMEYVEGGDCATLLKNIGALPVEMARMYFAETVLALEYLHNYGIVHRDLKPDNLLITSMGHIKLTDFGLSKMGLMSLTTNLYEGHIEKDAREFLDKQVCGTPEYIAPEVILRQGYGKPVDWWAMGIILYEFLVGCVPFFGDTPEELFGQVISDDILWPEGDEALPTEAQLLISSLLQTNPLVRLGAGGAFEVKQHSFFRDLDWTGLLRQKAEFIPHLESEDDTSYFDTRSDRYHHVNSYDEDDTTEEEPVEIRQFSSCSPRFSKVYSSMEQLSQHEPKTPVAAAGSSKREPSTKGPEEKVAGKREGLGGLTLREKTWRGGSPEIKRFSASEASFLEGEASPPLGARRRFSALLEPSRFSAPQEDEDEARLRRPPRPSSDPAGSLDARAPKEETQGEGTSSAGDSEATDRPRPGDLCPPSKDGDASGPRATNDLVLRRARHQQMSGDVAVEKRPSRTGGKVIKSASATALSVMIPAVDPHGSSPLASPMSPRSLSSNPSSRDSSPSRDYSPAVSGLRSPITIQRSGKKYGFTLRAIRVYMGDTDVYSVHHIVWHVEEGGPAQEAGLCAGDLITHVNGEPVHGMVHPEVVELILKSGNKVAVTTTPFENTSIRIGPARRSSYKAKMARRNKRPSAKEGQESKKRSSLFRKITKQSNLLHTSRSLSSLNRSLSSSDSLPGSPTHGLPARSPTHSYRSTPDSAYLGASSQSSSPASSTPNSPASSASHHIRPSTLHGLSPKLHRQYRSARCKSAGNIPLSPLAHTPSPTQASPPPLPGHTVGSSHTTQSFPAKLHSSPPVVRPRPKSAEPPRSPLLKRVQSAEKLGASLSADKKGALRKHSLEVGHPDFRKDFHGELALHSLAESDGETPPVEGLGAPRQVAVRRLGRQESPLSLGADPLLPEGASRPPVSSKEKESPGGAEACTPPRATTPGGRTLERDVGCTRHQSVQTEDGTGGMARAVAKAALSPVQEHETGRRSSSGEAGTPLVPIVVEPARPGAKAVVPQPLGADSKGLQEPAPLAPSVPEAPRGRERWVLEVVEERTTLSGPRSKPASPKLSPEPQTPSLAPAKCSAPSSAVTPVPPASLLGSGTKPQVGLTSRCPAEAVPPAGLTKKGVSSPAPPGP
Chain of Androgen receptor (Homo sapiens) (P10275 whole entry): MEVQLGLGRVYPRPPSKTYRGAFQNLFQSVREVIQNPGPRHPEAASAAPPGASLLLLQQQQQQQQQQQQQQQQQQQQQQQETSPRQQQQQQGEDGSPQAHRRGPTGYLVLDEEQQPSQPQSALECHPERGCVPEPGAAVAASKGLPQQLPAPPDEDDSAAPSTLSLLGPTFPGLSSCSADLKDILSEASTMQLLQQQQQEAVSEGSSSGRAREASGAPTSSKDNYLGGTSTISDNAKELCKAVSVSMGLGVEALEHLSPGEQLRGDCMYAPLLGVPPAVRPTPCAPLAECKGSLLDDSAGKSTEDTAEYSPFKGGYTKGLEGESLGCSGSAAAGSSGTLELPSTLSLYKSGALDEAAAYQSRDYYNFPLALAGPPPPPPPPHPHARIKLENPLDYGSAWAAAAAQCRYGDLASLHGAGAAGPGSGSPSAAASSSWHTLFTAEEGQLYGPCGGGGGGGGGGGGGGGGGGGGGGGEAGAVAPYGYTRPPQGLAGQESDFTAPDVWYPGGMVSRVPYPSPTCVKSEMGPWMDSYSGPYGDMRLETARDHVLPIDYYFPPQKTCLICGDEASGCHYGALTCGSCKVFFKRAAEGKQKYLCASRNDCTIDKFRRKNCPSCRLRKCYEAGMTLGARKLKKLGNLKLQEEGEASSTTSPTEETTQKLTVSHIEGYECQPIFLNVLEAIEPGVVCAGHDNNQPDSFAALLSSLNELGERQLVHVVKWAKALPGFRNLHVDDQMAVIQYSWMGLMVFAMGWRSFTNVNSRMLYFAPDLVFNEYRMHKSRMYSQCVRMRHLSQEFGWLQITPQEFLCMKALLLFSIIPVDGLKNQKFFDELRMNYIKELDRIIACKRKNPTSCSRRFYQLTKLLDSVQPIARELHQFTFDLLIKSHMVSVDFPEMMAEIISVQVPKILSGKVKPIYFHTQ
Chain of Death-associated protein kinase 1 (P53355 whole entry, looked up): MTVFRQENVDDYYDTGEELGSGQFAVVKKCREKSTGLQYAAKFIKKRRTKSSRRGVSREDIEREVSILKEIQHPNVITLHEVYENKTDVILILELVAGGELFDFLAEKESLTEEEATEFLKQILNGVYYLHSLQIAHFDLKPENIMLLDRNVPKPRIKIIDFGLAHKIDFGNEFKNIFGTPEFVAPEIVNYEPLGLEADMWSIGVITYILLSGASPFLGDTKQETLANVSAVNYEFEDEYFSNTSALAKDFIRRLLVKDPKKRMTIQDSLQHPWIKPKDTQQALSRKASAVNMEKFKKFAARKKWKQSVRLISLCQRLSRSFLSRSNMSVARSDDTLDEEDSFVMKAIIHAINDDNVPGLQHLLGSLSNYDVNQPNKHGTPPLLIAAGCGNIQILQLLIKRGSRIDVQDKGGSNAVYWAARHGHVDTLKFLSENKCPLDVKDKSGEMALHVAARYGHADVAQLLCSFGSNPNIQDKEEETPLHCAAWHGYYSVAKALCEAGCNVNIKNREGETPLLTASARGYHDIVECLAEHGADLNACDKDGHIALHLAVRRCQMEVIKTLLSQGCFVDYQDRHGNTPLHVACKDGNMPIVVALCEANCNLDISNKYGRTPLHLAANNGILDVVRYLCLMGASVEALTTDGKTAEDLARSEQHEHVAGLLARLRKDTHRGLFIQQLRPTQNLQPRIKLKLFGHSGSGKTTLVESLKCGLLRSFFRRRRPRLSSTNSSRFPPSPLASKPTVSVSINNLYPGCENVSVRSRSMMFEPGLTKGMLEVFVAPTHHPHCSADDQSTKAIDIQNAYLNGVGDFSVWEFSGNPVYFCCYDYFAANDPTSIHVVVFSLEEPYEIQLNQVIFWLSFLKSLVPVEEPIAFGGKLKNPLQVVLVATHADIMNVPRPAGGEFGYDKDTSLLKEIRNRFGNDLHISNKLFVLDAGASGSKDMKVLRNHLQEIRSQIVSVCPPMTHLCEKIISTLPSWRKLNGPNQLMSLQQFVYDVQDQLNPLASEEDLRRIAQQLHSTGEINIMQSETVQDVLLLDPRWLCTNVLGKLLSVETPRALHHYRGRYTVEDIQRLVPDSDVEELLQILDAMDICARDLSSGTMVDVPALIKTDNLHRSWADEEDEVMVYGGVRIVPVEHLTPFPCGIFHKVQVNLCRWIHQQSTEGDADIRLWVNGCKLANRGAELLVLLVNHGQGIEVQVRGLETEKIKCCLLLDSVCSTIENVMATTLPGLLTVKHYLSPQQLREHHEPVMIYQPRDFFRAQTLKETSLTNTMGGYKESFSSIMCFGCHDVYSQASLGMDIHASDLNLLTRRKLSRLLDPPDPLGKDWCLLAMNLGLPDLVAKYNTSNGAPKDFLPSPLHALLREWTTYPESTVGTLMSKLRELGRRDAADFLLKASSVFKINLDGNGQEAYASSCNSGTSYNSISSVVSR
Chain of 5'-AMP-activated protein kinase catalytic subunit alpha-2 (Homo sapiens) (P54646 whole entry, looked up): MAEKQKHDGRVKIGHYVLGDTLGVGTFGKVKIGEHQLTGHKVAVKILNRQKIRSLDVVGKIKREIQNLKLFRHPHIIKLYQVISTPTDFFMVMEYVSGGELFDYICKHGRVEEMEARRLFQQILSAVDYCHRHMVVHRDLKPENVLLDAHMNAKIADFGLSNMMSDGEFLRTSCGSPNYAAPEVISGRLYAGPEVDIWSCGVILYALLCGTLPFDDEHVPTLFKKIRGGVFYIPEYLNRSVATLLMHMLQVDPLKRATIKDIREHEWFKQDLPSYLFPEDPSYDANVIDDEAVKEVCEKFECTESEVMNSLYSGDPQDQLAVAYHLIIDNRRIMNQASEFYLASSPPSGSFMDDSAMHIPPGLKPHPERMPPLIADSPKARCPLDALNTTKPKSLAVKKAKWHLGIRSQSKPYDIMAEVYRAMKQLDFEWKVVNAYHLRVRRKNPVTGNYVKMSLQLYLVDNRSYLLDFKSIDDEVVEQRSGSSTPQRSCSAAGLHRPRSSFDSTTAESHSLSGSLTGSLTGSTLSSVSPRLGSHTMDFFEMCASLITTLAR

For the compound `C=CC(=O)Nc1ccc(C(=O)Nc2[nH]nc3c2CN(C(=O)N[C@H](CN(C)C)c2ccccc2)C3(C)C)cc1`, in test [1], the % of engagement was -5.3%.

`CN(C)C/C=C/C(=O)Nc1ccc(C(=O)N2CCCC(Nc3ncc(Cl)c(-c4c[nH]c5ccccc45)n3)C2)cc1` (stereo unspecified) returned a % of control in test [2] of 80%.

`Cc1cc(C)cc([C@@H]2c3cc(C)ccc3NC(=O)CN2C(=O)c2ccc(Br)s2)c1`: the % of inhibition in test [3] was -7%.

Turning to `Cc1cc([C@@H](C)Nc2ccccc2C(=O)O)c2nc(N3CCOCC3)cc(=O)n2c1` [AZD-6482], the % of control in test [4] is 100%.

`O=C(NOC[C@H](O)CO)c1ccc(F)c(F)c1Nc1ccc(I)cc1F` came in with a % of control in [5] of 96%.

Consider `CNCCN1CCC(c2cc(CN(C)C(=O)c3cccc(Oc4ccccc4)c3)ccn2)CC1`, for which the % of growth rate in test [6] was -24.1%.

Consider `N#Cc1cccc(-c2c[nH]c3ncnc(N4CCOCC4)c23)c1`, for which the % of inhibition is 24% in test [7] and -55% in test [8]. Also, the % of control on Misshapen-like kinase 1 amounted to 46%; in test [9] it was 22%.

As for `CC[C@@H]1[C@H](F)C(=O)N[C@@H]1COc1nccc2cc(C(N)=O)c(OC)cc12` [ZIMLOVISERTIB], the % of inhibition is 6.8% in test [10] and -0.518% in test [11].

Regarding `CCN(CC)CCCCNc1ncc2cc(-c3cc(OC)cc(OC)c3)c(NC(=O)NC(C)(C)C)nc2n1`, the % of control in test [12] is 100%.

Turning to `CC(=O)Nc1cccc(-n2c(=O)n(C3CC3)c(=O)c3c(Nc4ccc(I)cc4F)n(C)c(=O)c(C)c32)c1`, the % of control in test [13] is 112%.

`COc1cc(Nc2nc(C)cc(-c3cnn4nc(OC)ccc34)n2)cc(C(F)(F)F)c1` displayed a % of control in test [14] of 83%.

`Cc1cc(CN)cc(C)c1-c1ncn(C)c1-c1cncn1C`: the dTM at CREB-binding protein was -1.89 K.

As to `C=CC(=O)Nc1cc(-n2c(=O)ccc3cnc4ccc(-c5ccc(NS(C)(=O)=O)cc5)cc4c32)ccc1C`, the % of control in test [15] was determined as 100%; in [16] (at 1 µM), 100%; in test [16] (at 10 µM), 74%; in test [17] (at 1 µM) it was 100%; in test [17] (at 10 µM), 94%.
